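Step 1: Grow cells in 96-well plates. Step 2: Expose to compound for 48 hours at 5 concentrations. Step 3: Interpolate endpoints linearly; if unreached, use highest concentration. The concentration for full growth arrest is given as TGI.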
Tests used:
Assay in all cases: growth of human tumour cells (NCI), 48 h
KM12 colon = tested on: KM12 colon
MDA-MB-231 breast = tested on: MDA-MB-231 breast
HCT-15 colon = tested on: HCT-15 colon
MDA-MB-435 = tested on: MDA-MB-435
CAKI-1 renal = tested on: CAKI-1 renal
NCI/ADR-RES ovarian = tested on: NCI/ADR-RES ovarian
SK-MEL-2 melanoma = tested on: SK-MEL-2 melanoma
SN12C renal = tested on: SN12C renal
SW-620 colon = tested on: SW-620 colon
MALME-3M melanoma = tested on: MALME-3M melanoma
SF-268 CNS = tested on: SF-268 CNS
MCF7 breast = tested on: MCF7 breast
A549 NSCLC = tested on: A549 NSCLC
PC-3 prostate = tested on: PC-3 prostate
HCT-116 colon = tested on: HCT-116 colon
K-562 leukemia = tested on: K-562 leukemia
HS 578T breast = tested on: HS 578T breast
BT-549 breast = tested on: BT-549 breast
786-0 renal = tested on: 786-0 renal
SNB-19 CNS = tested on: SNB-19 CNS

SMILES | TGI (KM12 colon) [µM] | TGI (MDA-MB-231 breast) [µM] | TGI (HCT-15 colon) [µM] | TGI (MDA-MB-435) [µM] | TGI (CAKI-1 renal) [µM] | TGI (NCI/ADR-RES ovarian) [µM] | TGI (SK-MEL-2 melanoma) [µM] | TGI (SN12C renal) [µM] | TGI (SW-620 colon) [µM] | TGI (MALME-3M melanoma) [µM] | TGI (SF-268 CNS) [µM] | TGI (MCF7 breast) [µM] | TGI (A549 NSCLC) [µM] | TGI (PC-3 prostate) [µM] | TGI (HCT-116 colon) [µM] | TGI (K-562 leukemia) [µM] | TGI (HS 578T breast) [µM] | TGI (BT-549 breast) [µM] | TGI (786-0 renal) [µM] | TGI (SNB-19 CNS) [µM]
O=[N+]([O-])c1cccc(-c2cn3c(n2)Cc2ccccc2C3)c1 | > 100 | 67.6 | > 100 | > 100 | 58.2 | > 100 | > 100 | > 100 | > 100 | > 100 | > 100 | > 100 | > 100 | > 100 | > 100 | > 100 | > 100 | > 100 | > 100 | > 100
COc1ccc(C[C@@H](C(=O)O[C@H](C)[C@H](NC(=O)[C@@H](CC(C)C)N(C)C(=O)C2CCCN2C(=O)[C@H](C)O)C(=O)N2CCCCNC(=O)[C@@H](C)C(=O)[C@H](C(C)C)OC(=O)C[C@H](O)[C@H]2CC(C)C)N(C)C(C)=O)cc1 (stereo not given in full) | 31.6 | 34.2 | > 50 | > 50 | 41.6 | > 50 | > 50 | > 50 | 28.4 | 49.1 | > 50 | > 50 | > 50 | > 50 | > 50 | 39.7 | 34.8 | > 50 | > 50 | > 50
O=C(OCc1ccccc1)c1ccc(NCc2cc(O)ccc2O)cc1 | 3.62 | 6.08 | 2.42 | 3.9 | 1.79 | 4.18 | 5.23 | 2.78 | 3.93 | 2.98 | 2.99 | 7.81 | 20.5 | 2.73 | 3.02 | 6.98 | 5.43 | 2.19 | 2.67 | 10.8
COc1ccc(CCc2ccc3c(c2)OCO3)cc1 | > 100 | > 100 | > 100 | 42.6 | > 100 | > 100 | 92.4 | > 100 | > 100 | > 100 | > 100 | > 100 | > 100 | > 100 | > 100 | > 100 | > 100 | > 100 | > 100 | > 100
COc1cccc(/C=C2\SC(=S)N(/C=C3\C(=O)Oc4ccccc4C3=O)C2=O)c1O | > 100 | > 100 | > 100 | 75.6 | > 100 | > 100 | > 100 | > 100 | > 100 | > 100 | > 100 | > 100 | > 100 | > 100 | > 100 | > 100 | 82.3 | 55.6 | > 100 | > 100
O=CC(O)C(O)C1OC(=O)c2cc(O)c(O)c(O)c2C2=C(O)C(O)=C3OC(=O)c4c(c(O)c(O)c5c4C3C2C(=O)O5)-c2c(cc(O)c(O)c2O)C(=O)OCC1O (stereo not given) | 31.2 | 58.1 | > 100 | 34.1 | 37.7 | > 100 | > 100 | 30.4 | 36.3 | > 100 | > 100 | 39.7 | > 100 | > 100 | 29 | 56.7 | > 100 | > 100 | 32.2 | > 100
COc1ccc2c(C)cc(N/N=C/c3ccc(C)s3)nc2c1 | > 57 | 29.1 | 41.3 | > 52.4 | 34.4 | 73.5 | 37.9 | 37.3 | > 48.4 | > 69.6 | > 100 | 25.3 | 39.7 | 37.1 | > 46.4 | > 100 | > 90.9 | 62.8 | 31.6 | > 67.2
CC1CC(=NC2CCCCC2)Nc2ccccc2N1Cc1ccccc1 (stereo not given) | 17 | 17 | 19.1 | 13.4 | 19.2 | 19.9 | 24.9 | 22.1 | 23 | 8.8 | 17.3 | 14.5 | 16.5 | 18.3 | > 35.6 | > 36.1 | 19.7 | 18.7 | > 39 | 24.2
CN1C(=O)[C@H](c2c[nH]c3ccccc23)[C@H](c2c[nH]c3ccccc23)C1=O | > 100 | > 31.8 | > 59.9 | > 77.6 | > 38.8 | > 85.9 | > 55.2 | > 100 | > 100 | > 100 | > 100 | > 100 | > 100 | > 80.4 | > 59.1 | > 69.5 | > 86.3 | 55.7 | > 91.4 | > 100
Cc1ccc2c(=O)c(-c3nnc(NC4CCCCC4)s3)c[nH]c2n1 | > 100 | > 100 | > 100 | > 100 | > 100 | > 100 | > 100 | > 100 | > 100 | > 100 | > 100 | > 100 | > 100 | > 100 | > 100 | > 100 | > 100 | > 100 | > 100 | > 100

Source: PubChem BioAssay (NCI)
